Where a name gives a salt, the structure may show the parent alone. Read-outs that look alike come from different tables or passages of the source.
Columns and labels:
α2B receptor = molecular target: T1, α2B receptor (Homo sapiens, UniProt P18089); assay: Competition binding, [3H]rauwolscine, human α2B receptor
T1 construct: host or cells: LM(tk-) cells, line L-NGC-α2B
T1 sequence (P18089 1-450): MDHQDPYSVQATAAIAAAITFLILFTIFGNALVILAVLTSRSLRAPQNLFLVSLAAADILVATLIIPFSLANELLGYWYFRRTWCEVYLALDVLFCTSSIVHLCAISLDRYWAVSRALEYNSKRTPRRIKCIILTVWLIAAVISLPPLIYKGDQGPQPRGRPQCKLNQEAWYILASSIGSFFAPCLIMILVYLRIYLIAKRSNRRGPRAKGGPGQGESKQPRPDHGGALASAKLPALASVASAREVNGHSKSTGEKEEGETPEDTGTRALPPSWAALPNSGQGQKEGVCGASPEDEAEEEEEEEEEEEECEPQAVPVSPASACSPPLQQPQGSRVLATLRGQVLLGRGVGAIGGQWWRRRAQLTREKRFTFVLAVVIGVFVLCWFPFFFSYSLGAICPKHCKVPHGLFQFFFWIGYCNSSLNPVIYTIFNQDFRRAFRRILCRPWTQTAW
Outline: (§1)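 Lysates of LM(tk−) cells stably expressing human α2A, α2B or α2C receptors in 25 mM glycylglycine pH 7.6. Equilibrium competition against 0.5 nM [3H]rauwolscine, with 10 μM phentolamine defining nonspecific binding. Bound ligand separated by GF/B filtration.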

[1] = molecular target: T2, α1A Human Adrenergic Receptor (Homo sapiens, UniProt P25100); assay: Radioligand binding, [3H]prazosin, cloned human α1A adrenergic receptor
T2 construct: The entire coding region of α1A (1719 bp); expressed in transfected cells
T2 sequence (P25100 1-572): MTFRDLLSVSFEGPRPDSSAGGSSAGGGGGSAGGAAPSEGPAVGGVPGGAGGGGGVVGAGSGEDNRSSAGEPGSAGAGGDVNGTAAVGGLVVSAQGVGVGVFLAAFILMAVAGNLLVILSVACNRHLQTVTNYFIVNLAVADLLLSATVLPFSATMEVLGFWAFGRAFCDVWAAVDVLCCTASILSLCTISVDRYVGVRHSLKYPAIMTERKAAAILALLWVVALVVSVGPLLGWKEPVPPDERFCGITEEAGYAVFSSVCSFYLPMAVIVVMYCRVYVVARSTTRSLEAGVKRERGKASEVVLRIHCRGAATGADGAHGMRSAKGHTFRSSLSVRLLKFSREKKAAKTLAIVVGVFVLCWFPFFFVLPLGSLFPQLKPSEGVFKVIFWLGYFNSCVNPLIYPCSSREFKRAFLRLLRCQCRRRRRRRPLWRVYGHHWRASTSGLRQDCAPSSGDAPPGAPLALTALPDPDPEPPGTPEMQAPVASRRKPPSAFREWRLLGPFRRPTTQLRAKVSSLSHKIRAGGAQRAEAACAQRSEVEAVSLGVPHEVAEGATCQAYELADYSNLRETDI
Outline: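 [3H]prazosin 0.5 nM, transfected LM(tk−) membranes, 37° C, 20 min. Buffer 50 mM Tris-HCl/1 mM MgCl2/0.1% ascorbate, pH 7.5. NSB: 10 μM phentolamine. Filtration harvest.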

α2C receptor = molecular target: T3, α2C receptor (Homo sapiens, UniProt P18825); assay: Competition binding, [3H]rauwolscine, human α2C receptor
T3 construct: host or cells: LM(tk-) cells, line L-α2C
T3 sequence (P18825 1-462): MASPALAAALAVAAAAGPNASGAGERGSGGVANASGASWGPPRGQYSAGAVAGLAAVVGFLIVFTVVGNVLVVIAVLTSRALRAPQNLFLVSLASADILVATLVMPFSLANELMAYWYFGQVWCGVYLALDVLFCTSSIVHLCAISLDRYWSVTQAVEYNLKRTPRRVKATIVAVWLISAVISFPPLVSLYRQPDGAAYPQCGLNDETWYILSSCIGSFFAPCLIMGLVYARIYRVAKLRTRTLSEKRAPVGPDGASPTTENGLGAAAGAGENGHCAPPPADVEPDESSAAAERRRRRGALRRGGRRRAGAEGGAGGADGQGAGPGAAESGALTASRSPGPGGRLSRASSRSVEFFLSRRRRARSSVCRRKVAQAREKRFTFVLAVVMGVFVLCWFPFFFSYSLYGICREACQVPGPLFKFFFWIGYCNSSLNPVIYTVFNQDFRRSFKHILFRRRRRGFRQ
Outline: as §1

[2] = [3H]rauwolscine, human α2B receptor, LM(tk−) cells
[3] = [3H]prazosin, cloned human α1A receptor, LM(tk−) cell membranes
[4] = [3H]rauwolscine, human α2C receptor, LM(tk−) cells
[5] = [3H]rauwolscine, human α2B receptor, LM(tk−) cells, read-out: pKi alpha-2 2b (converted)
[6] = [3H]prazosin, cloned human α1A receptor, LM(tk−) cell membranes, read-out: pKi alpha-1 1a (converted)
[7] = [3H]rauwolscine, human α2C receptor, LM(tk−) cells, read-out: pKi alpha-2 2c (converted)
[8] = PKi alpha-2 2b, [3H]rauwolscine, human receptor, LM(tk-) cell lysates, mean
[9] = PKi alpha-1 1a, [3H]prazosin, cloned human receptor, LM(tk-) cell membranes, mean
[10] = [3H]rauwolscine, human receptor, LM(tk-) cell lysates, mean, read-out: PKi alpha-2 2b (converted)
[11] = [3H]prazosin, cloned human receptor, LM(tk-) cell membranes, mean, read-out: PKi alpha-1 1a (converted)
[12] = [3H]rauwolscine, human receptor, LM(tk-) cell lysates, mean, read-out: PKi alpha-2 2c (converted)

In the case of `CCC1=C(C(N)=O)C(c2ccc([N+](=O)[O-])cc2)C(C(=O)NCCCN2CCC(O)(c3ccccc3)CC2)=CN1CC.Cl.O` (stereo not drawn) [Example 101, 5-Carboxamido-1,6-diethyl-1,4-dihydro-3-{N-[3-(4-hydroxy-4-phenylpiperidin-1-yl)propyl]}carboxamido-4-(4-nitrophenyl)pyridine hydrochloride hydrate], the “pKi alpha-2 2b” value (α2B receptor; [2]) is reported as 6.18, the “pKi alpha-1 1a” value [1, 3] is reported as 5.86 and the “pKi alpha-2 2c” value (α2C receptor; [4]) is reported as 6.04.
For `CCC1=C(C(N)=O)C(c2ccc([N+](=O)[O-])cc2)C(C(=O)NCCCN2CCN(c3ccccc3)CC2)=C(CC)N1` (stereo not drawn) [Example 104, 5-Carboxamido-2,6-diethyl-1,4-dihydro-4-(4-nitrophenyl)-3-{N-[3-(4-phenylpiperazin-1-yl)propyl]}carboxamido-pyridine hydrochloride hydrate], the Ki (α2B receptor; [5]) was 56.2 nM, the Ki [1, 6] was 132 nM and the Ki (α2C receptor; [7]) was 15.8 nM.
For `CCC1=C(C(N)=O)C(c2ccc([N+](=O)[O-])cc2)C(C(=O)NCCCN2CCC(c3ccccc3)(c3ccccc3)CC2)=C(CC)N1` (stereo not drawn) [Example 120, 5-Carboxamido-2,6-diethyl-1,4-dihydro-4-(4-nitrophenyl)-3-{N-[3-(4,4-diphenylpiperidin-1-yl)propyl]} carboxamidopyridine], the “pKi alpha-2 2b” value (α2B receptor; [2]) was 6.59, the “pKi alpha-1 1a” value [1, 3] was 6.33 and the “pKi alpha-2 2c” value (α2C receptor; [4]) was 6.72.
For `CCC1=C(C(N)=O)C(c2ccc([N+](=O)[O-])cc2)C(C(=O)NCCCN2CCC(c3ccccc3)CC2)=C(CC)N1` (stereo not drawn) [Example 121, 5-Carboxamido-2,6-diethyl-1,4-dihydro-4-(4-nitrophenyl)-3-{N-[3-(4-phenylpiperidin-1-yl)propyl]}carboxamidopyridine], the Ki (α2B receptor; [5]) was 257 nM, the Ki [1, 6] was 240 nM and the Ki (α2C receptor; [7]) was 191 nM.
With `CCC1=C(C(N)=O)C(c2ccc([N+](=O)[O-])cc2)C(C(=O)NC2CCN(CCc3c[nH]c4ccccc34)CC2)=CN1CC` (stereo not drawn) [Example 122, 5-Carboxamido-1,4-dihydro-3-(N-{1-[2-(3-indolyl)ethyl]piperidin-4-yl}) carboxamido-1,6-diethyl-4-(4-nitrophenyl)pyridine] the “pKi alpha-2 2b” value (α2B receptor; [2]) was 7.35, the “pKi alpha-1 1a” value [1, 3] was 6.62 and the “pKi alpha-2 2c” value (α2C receptor; [4]) was 6.53.
For `CCC1=C(C(N)=O)C(c2ccc([N+](=O)[O-])cc2)C(C(=O)NC2CCN(CCc3c[nH]c4ccccc34)CC2)=CN1CC` (stereo not drawn) [Example 123, 5-Carboxamido-1,6-diethyl-1,4-dihydro-3-(N-{1-[2-(3-indolyl)ethyl]piperidin-4-yl}) carboxamide-4-(4-nitrophenyl)pyridine], the “pKi alpha-2 2b” value (α2B receptor; [2]) was 6.87, the “pKi alpha-1 1a” value [1, 3] was 6.7 and the “pKi alpha-2 2c” value (α2C receptor; [4]) was 6.42.
Compound `COc1ccccc1N1CCN(CCCNC(=O)C2=C(C)NC(C)=C(C(N)=O)C2c2ccc([N+](=O)[O-])cc2)CC1` (stereo not drawn) [Example 124] has a Ki (α2B receptor; [5]) of 200 nM, a Ki [1, 6] of 57.5 nM and a Ki (α2C receptor; [7]) of 44.7 nM.
`CCC1=C(C(=O)NC)C(c2ccc([N+](=O)[O-])cc2)C(C(=O)NCCCN2CCC(C#N)(c3ccccc3)CC2)=C(CC)N1` (stereo not drawn) [Example 126, 3-{N-[3-(4-Cyano-4-phenylpiperidin-1-yl)propyl]}carboxamido-1,4-dihydro-2,6-diethyl-5-(1-methyl)carboxamido-4-(4-nitrophenyl)pyridine] was tested, and the “pKi alpha-2 2b” value (α2B receptor; [2]) was 5.63, the “pKi alpha-1 1a” value [1, 3] was 5.15 and the “pKi alpha-2 2c” value (α2C receptor; [4]) was 5.36.
`CNC(=O)C1=C(C)NC(C)=C(C(=O)NCCCN2CCC(c3ccccc3)(c3ccccc3)CC2)C1c1ccc2c(c1)OCCO2` (stereo not drawn) [Example 163] showed a Ki (α2B receptor; [8]) of 1700 nM, a Ki [1, 9] of 776 nM and a Ki (α2C receptor; PKi alpha-2 2c, [3H]rauwolscine, human receptor, LM(tk-) cell lysates, mean) of 1230 nM.
With `CCC1=C(C(N)=O)C(c2ccc([N+](=O)[O-])cc2)C(C(=O)NCCCN2CCC(C(=O)OC)(c3ccccc3)CC2)=C(CCCCN=[N+]=[N-])N1` (stereo not drawn) [Example 165, 2-(4-Azidobutyl)-3-{N-[3-(4-methoxycarbonyl-4-phenylpiperidin-1-yl)propyl]}carboxamido-5-carboxamido-6-ethyl-1,4-dihydro-4-(4-nitrophenyl)pyridine] the Ki (α2B receptor; [10]) was 1950 nM, the Ki [1, 11] was 1410 nM and the Ki (α2C receptor; [12]) was 1510 nM.
`CCC1=C(C(N)=O)C(c2ccc([N+](=O)[O-])cc2)C(C(=O)NCCCN2CCC(C(=O)OC)(c3ccccc3)CC2)=C(CCCCN)N1` (stereo not drawn) [Example 166, 2-(4-Aminobutyl)-5-carboxamido-6-ethyl-1,4-dihydro-3-{N-[3-(4-methoxycarbonyl-4-phenylpiperidin-1-yl)propyl]}carboxamido-4-(4-nitrophenyl)pyridine] gave a Ki (α2B receptor; [10]) of 3890 nM, a Ki [1, 11] of 2340 nM and a Ki (α2C receptor; [12]) of 1020 nM.
`COC(=O)C1=C(C)NC(CCCCN)=C(C(=O)NCCCN2CCC(c3ccccc3)(c3ccccc3)CC2)C1c1ccc([N+](=O)[O-])cc1` (stereo not drawn) [Example 170, 2-(4-Aminobutyl)-1,4-dihydro-5-methoxycarbonyl-6-methyl-4-(4-nitrophenyl)-3-{N-[3-(4,4-diphenylpiperidin-1-yl)propyl]}carboxamidopyridine] was tested, and the Ki (α2B receptor; PKi alpha-2 2b) was 8710 nM, the Ki ([1]; PKi alpha-1 1a) was 295 nM and the Ki (α2C receptor; PKi alpha-2 2c) was 4900 nM.
Compound `CCC1=C(C(N)=O)C(c2ccc([N+](=O)[O-])cc2)C(C(=O)NCCCN2CCC(c3ccccc3)(c3ccccc3)CC2)=C(CCCCN)N1` (stereo not drawn) [Example 171, 2-(4-Aminobutyl)-5-carboxamido-6-ethyl-1,4-dihydro-4-(4-nitrophenyl)-3-{N-[3-(4,4-diphenylpiperidin-1-yl)propyl]}carboxamidopyridine] has a Ki (α2B receptor; [8]) of 2000 nM, a Ki [1, 9] of 1050 nM and a Ki (α2C receptor; [12]) of 575 nM.
`CCC1=C(C(=O)NC)C(c2ccc([N+](=O)[O-])cc2)C(C(=O)NCCCN2CCC(c3ccccc3)(c3ccccc3)CC2)=C(CCCCN)N1` (stereo not drawn) [Example 172, 2-(4-Aminobutyl)-6-ethyl-1,4-dihydro-5-(N-methyl)carboxamido-4-(4-nitrophenyl)-3-{N-[3-(4,4-diphenylpiperidin-1-yl)propyl]}carboxamidopyridine] was tested, and the Ki (α2B receptor; [8]) was 3470 nM, the Ki [1, 9] was 813 nM and the Ki (α2C receptor; [12]) was 692 nM.
In the case of `CCC1=C(C(=O)NC)C(c2ccc([N+](=O)[O-])cc2)C(C(=O)NCCCN2CCC(c3ccccc3)(c3ccccc3)CC2)=C(CCCCOC)N1` (stereo not drawn) [Example 173, 6-Ethyl-1,4-dihydro-2-(4-methoxybutyl)-5-(N-methyl)carboxamido-4-(4-nitrophenyl)-3-{N-[3-(4,4-diphenylpiperidin-1-yl)propyl]}carboxamidopyridine], the Ki (α2B receptor; [8]) is reported as 955 nM, the Ki [1, 9] is reported as 741 nM and the Ki (α2C receptor; [12]) is reported as 1480 nM.
Compound `CCC1=C(C(=O)NC)C(c2ccc([N+](=O)[O-])cc2)C(C(=O)NCCCN2CCC(C(=O)OC)(c3ccccc3)CC2)=C(CCCCOC)N1` (stereo not drawn) [Example 174, 6-Ethyl-1,4-dihydro-2-(4-methoxybutyl)-3-{N-[3-(4-methoxycarbonyl-4-phenylpiperidin-1-yl)propyl]}carboxamido-5-(N-methyl)carboxamido-4-(4-nitrophenyl)pyridine] has a Ki (α2B receptor; [10]) of 955 nM, a Ki [1, 11] of 3980 nM and a Ki (α2C receptor; [12]) of 676 nM.
